The values that follow are results of earlier work, collected in patent US12274727B2 (Bazelet Health Systems, Inc., priority 2021, dated 2025).

Bounds are passed on as bounds.

The conditions of series [1]: with piperine, chronic or single dose regimen.
Test in series [2]: not given
This is another data set of the same source.

Test in series [3]: not given
The source holds these as a separate data set.

The conditions of series [4]: room temperature.
The conditions of series [5]: patch testing in Europe.
For series [6] the following is noted: after one single oral administration.
Test in series [7]: not given
The source holds these as a separate data set.

Regarding `C=C(C)[C@@H]1CCC(C)=C[C@H]1c1c(O)cc(CCCCC)cc1O` [CBD, Cannabidiol], the “increase in oral bioavailability compared to control group without piperine” value in series [1] is recorded as roughly 2.5 fold. For the same compound, the sublingually absorbed result (emulsified (micronized) CBD products) is reported as “up to 35%”. The oral bioavailability entry (oral, humans) is listed as “approximately 6%”. Besides, the “bioavailability from smoked product” value (smoked) is on record as “around 31%”. For the setting “sublingual”, the sublingual bioavailability is given as 13-19%. The transdermal absorption result (transdermal) is on record as “about 10%”. The “formation of THC, yield” value in series [2] (artificial gastric fluid without pepsin, first study) is 2.9%. For the same compound, the “conversion into THC (both 8 and 9 isomers)” value in series [2] (simulated gastric fluid, another study) is “about 49%”. Moreover, the “degradation by light, average values” in series [3] (after 30 days) was “up to 15%”. Also, the “maximum degradation, average values” in series [3] (stored at 37° C. for 30 days) was “up to 20%”.
`CC(C)=CCC1C(=O)C(C(=O)CC(C)C)=C(O)C(O)(CC=C(C)C)C1=O` (stereo not drawn) [Humulone, humulone]: in series [4], the time to degradation result is listed as “about 12 weeks”.
With `C=CC(C)(O)CCC=C(C)C` (stereo not drawn) [Linalool], the “people found to be allergic to the oxidized form” value in series [5] is reported as 7%.
`C=C1CC/C=C(\C)CC[C@@H]2[C@@H]1CC2(C)C` [β-caryophyllene]: the Tmax in series [6] is recorded as greater than 1 h.
For the compound `C=C(C)[C@@H]1CCC(C)=C[C@H]1c1c(O)cc(CCCCC)cc1O` [pharmaceutical CBD], in series [7] (another trial), the “patients reporting similar AEs” value is 86%. For the same compound, the “patients with AEs reported” value in series [7] (randomized controlled trial in treatment resistant epilepsy) was 93%.

Broadly, the Tmax is the time from dosing to the highest level.
